Among the data in US5834433A, “Compounds and pharmaceutical uses of peptides of bombesin and GRP” (Merrell Pharmaceuticals Inc., priority 1996, dated 1998) are Kd values, retold here.

pKd: −log10 of the molar value. Non-standard residues stand in square brackets, D forms with d. Residues, ends and D or L forms follow the SMILES beside them. *: point of attachment. Palmitoyl = CCCCCCCCCCCCCCCC(=O)*; Lauroyl = CCCCCCCCCCCC(=O)*; Octanoyl = CCCCCCCC(=O)*

Broadly, the pKd is −log10 of the Kd, conventionally taken in molar units.

This test deals with T1, bombesin receptor (Mus musculus, UniProt P21729).
T1 construct: The pancreata from one or more mice were pooled, minced, and homogenized; from tissue; host or cells: mouse pancreas (membrane pellet in A1; chopped tissue in A2)
T1 sequence (P21729 whole entry): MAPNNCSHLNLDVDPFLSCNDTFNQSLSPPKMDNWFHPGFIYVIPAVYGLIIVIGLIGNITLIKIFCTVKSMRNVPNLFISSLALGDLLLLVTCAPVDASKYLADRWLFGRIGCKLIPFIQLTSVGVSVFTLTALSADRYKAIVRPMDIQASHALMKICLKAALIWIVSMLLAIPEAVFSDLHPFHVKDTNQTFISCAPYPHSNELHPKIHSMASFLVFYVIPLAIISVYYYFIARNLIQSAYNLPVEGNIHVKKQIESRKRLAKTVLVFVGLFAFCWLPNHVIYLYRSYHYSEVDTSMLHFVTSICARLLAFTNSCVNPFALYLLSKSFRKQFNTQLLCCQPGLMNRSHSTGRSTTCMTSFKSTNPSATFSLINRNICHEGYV
In words: Competition at the bombesin receptor for iodinated GRP (125I-GRP), mouse pancreas membranes. Further details: species or system mice. Particulars: 125I-GRP competition, read-out: Binding KD. The method, then: The pancreata from one or more mice were pooled, minced, and homogenized in 50 mM HEPES (pH 7.4) containing 120 mM NaCl and 5 mM KC1 at 4° C. and centrifuged at 37,500 ×g for 15 minutes. The pellet was resuspended in 50 mM HEPES (pH 7.4) containing 10 mM EDTA and 300 mM KC1 and incubated for 30 minutes at 4° C. The suspension was centrifuged as above and the pellet was washed two times in 50 mM HEPES (pH 7.4) containing protease inhibitors (10 uM phenylmethylsulfonyl fluoride, 1 uM thiorphan, 40 ug/ml bacitracin, 10 mM iodoacetimide and 4 ug/ml leupeptin), and again centrifuged. The tissue was then resuspended in incubation buffer (1 ml per 4 mg pancreas) and incubated for 15 minutes at room temperature, then 250 ul was added to each assay tube to commence the assay. The assay tubes contained incubation buffer consisting of 50 mM HEPES (pH 7.4), 0.5% BSA, protease inhibitors, 2 mM MnCl2, 1 uM somatostatin, and concentrations of ^125 I-GRP and peptides as needed in a final volume of 500 ul. The assay was allowed to proceed to equilibrium for 90 minutes at room temperature. After this time, the contents of each tube was rapidly filtered over Whatman GF/B filters presoaked in 0.1% polyethyleneimine and the filters were rapidly washed three times with ice-cold 50 mM HEPES (pH 7.4). Filter-bound radioactivity was quantitated in a gamma counter. Competition of iodinated GRP binding by test compounds or standards was expressed as a percentage of ^125 I-GRP binding in the absence of peptide. Affinity and maximal binding were calculated with Ligand (Biosoft, Cambridge, UK).
Consider `CCCCCCCCCCCC(=O)N[C@@H](Cc1c[nH]c2ccccc12)C(=O)N[C@@H](C)C(=O)N[C@H](C(=O)N[C@H](C)C(=O)N[C@@H](Cc1c[nH]cn1)C(N)=O)C(C)C` [Nα-LaurylW A V a H #] (Lauroyl-WAV[dA]H-NH2), for which the pKd was under 5.00. As for `CCCCCCCC(=O)N[C@@H](CCC(N)=O)C(=O)N[C@@H](Cc1c[nH]c2ccccc12)C(=O)N[C@@H](C)C(=O)N[C@H](C(=O)N[C@H](C)C(=O)N[C@@H](Cc1c[nH]cn1)C(N)=O)C(C)C` [Example 4, N-(n-Octanoyl)-Gln-Trp-Ala-Val-ala-His-NH2] (Octanoyl-QWAV[dA]H-NH2), the figure is 7.24. Turning to `CCCCCCCC(=O)N[C@@H](Cc1c[nH]c2ccccc12)C(=O)N[C@@H](C)C(=O)N[C@H](C(=O)N[C@H](C)C(=O)N[C@@H](Cc1c[nH]cn1)C(N)=O)C(C)C` [Nα-OctylW A V a H #] (Octanoyl-WAV[dA]H-NH2), the pKd is under 5.00. `CC(=O)N[C@@H](Cc1c[nH]c2ccccc12)C(=O)N[C@@H](C)C(=O)N[C@H](C(=O)N[C@H](C)C(=O)N[C@@H](Cc1c[nH]cn1)C(N)=O)C(C)C` [Nα-AcetylW A V a H #] (Ac-WAV[dA]H-NH2): the pKd was under 5.00.

For `CC(=O)N[C@@H](CCC(N)=O)C(=O)N[C@@H](Cc1c[nH]c2ccccc12)C(=O)N[C@@H](C)C(=O)N[C@H](C(=O)N[C@H](C)C(=O)N[C@@H](Cc1c[nH]cn1)C(N)=O)C(C)C` [Nα-AcetylQ W A V a H #] (Ac-QWAV[dA]H-NH2), the negative logarithm of the Kd (pKd) was 5.82. As to `CC(=O)N[C@@H](CCC(N)=O)C(=O)N[C@@H](Cc1c[nH]c2ccccc12)C(=O)N[C@@H](C)C(=O)N[C@H](C(=O)N[C@H](C)C(=O)N[C@@H](Cc1c[nH]cn1)C(=O)N[C@@H](CC(C)C)C(N)=O)C(C)C` [Nα-AcetylQ W A V a H L #] (Ac-QWAV[dA]HL-NH2), the pKd is 7.16. The result for `CCCCCCCCCCCCCCCC(=O)N[C@@H](Cc1c[nH]c2ccccc12)C(=O)N[C@@H](C)C(=O)N[C@H](C(=O)N[C@H](C)C(=O)N[C@@H](Cc1c[nH]cn1)C(N)=O)C(C)C` [Nα-PalmitylW A V a H #] (Palmitoyl-WAV[dA]H-NH2) reads under 5.00. In the case of `CCCCCCCCCCCC(=O)N[C@@H](CCC(N)=O)C(=O)N[C@@H](Cc1c[nH]c2ccccc12)C(=O)N[C@@H](C)C(=O)N[C@H](C(=O)N[C@H](C)C(=O)N[C@@H](Cc1c[nH]cn1)C(=O)N[C@@H](CC(C)C)C(N)=O)C(C)C` [Example 2, N-(Lauroyl)-Gln-Trp-Ala-Val-ala-His-Leu-NH2] (Lauroyl-QWAV[dA]HL-NH2), the pKd was 6.49. The result for `CCCCCCCCCCCC(=O)N[C@@H](CCC(N)=O)C(=O)N[C@@H](Cc1c[nH]c2ccccc12)C(=O)N[C@@H](C)C(=O)N[C@H](C(=O)N[C@H](C)C(=O)N[C@@H](Cc1c[nH]cn1)C(N)=O)C(C)C` [Nα-LaurylQ W A V a H #] (Lauroyl-QWAV[dA]H-NH2) reads under 5.00; that for `CCCCCCCCCCCCCCCC(=O)N[C@@H](CCC(N)=O)C(=O)N[C@@H](Cc1c[nH]c2ccccc12)C(=O)N[C@@H](C)C(=O)N[C@H](C(=O)N[C@H](C)C(=O)N[C@@H](Cc1c[nH]cn1)C(=O)N[C@@H](CC(C)C)C(N)=O)C(C)C` [Example 3, N-(Palmitoyl)-Gln-Trp-Ala-Val-ala-His-Leu-NH2] (Palmitoyl-QWAV[dA]HL-NH2), 6.46. Consider `CCCCCCCC(=O)N[C@@H](CCC(N)=O)C(=O)N[C@@H](Cc1c[nH]c2ccccc12)C(=O)N[C@@H](C)C(=O)N[C@H](C(=O)N[C@H](C)C(=O)N[C@@H](Cc1c[nH]cn1)C(=O)N[C@@H](CC(C)C)C(N)=O)C(C)C` [Example 1, N-(n-Octanoyl)-Gln-Trp-Ala-Val-ala-His-Leu-NH2] (Octanoyl-QWAV[dA]HL-NH2), for which the negative-log Kd (pKd) is 8.30. The result for `CCCCCCCCCCCCCCCC(=O)N[C@@H](CCC(N)=O)C(=O)N[C@@H](Cc1c[nH]c2ccccc12)C(=O)N[C@@H](C)C(=O)N[C@H](C(=O)N[C@H](C)C(=O)N[C@@H](Cc1c[nH]cn1)C(N)=O)C(C)C` [Nα-PalmitylQ W A V a H #] (Palmitoyl-QWAV[dA]H-NH2) reads under 5.00.
